Patent US20240158740A1, “CELL CLUSTER PRODUCTION METHOD” (National University Corporation Tokyo Medical and Dental …, priority 2021, published 2024)

Columns and labels:
Type in all cases: cell-based
[1] = tested on: Human iPS cells (625A4) derived cell population; assay: Differentiation marker analysis using flow cytometry (CD34, CD32; Day 8); conditions: cell cluster obtained with CHIR99021 2 μM (Days 0 to 2), further differentiated; cell population of Day 8; compared with control (−)
Description: Following the preparation of human yolk sac mesoderm cells in [1], the medium was replaced with Essential 6 medium (Gibco) (10 cm dish; 8 ml) supplemented with VEGF (80 ng/ml), FGF2 (25 ng/ml), SCF (50 ng/ml), and SB431542 (2 μM), and hemangioblasts were induced by further culture at 37° C. for 2 days under 5% CO2. Then, the medium was replaced with Stempro-34 SFM (Gibco) (10 cm dish; 8 ml) supplemented with VEGF (80 ng/ml), SCF (50 ng/ml), Flt-3L (50 ng/ml), IL-3 (50 ng/ml), IL-6 (50 ng/ml), and TPO (5 ng/ml), and the cells were cultured at 37° C. for 2 days under 5% CO2. Then, the medium was replaced with a medium of the composition described above except for VEGF, and CD34-positive and CD32-positive vitelline venous hemogenic endothelial cells were induced by culture at 37° C. for 2 days under 5% CO2. After induction of differentiation of vitelline venous hemogenic endothelial cells by the step of Days 6 to 8 in [4], the medium was removed, and the cells were washed twice with PBS(−) (Gibco). Then, TrypLE Express (Gibco) was added at a volume of 3 mL/dish and left at 37° C. for 15 minutes. Then, the cells were recovered into a 15 mL tube while dissociated by pipetting with P1000 micropipette. […] The differentiation markers were analyzed by BD LSRFortessa flow cytometry using the obtained antibody-stained cell suspension. Data obtained from flow cytometry was analyzed using FlowJo.

[2] = tested on: Human iPS cells (625A4) colonies; assay: Differentiation marker analysis of cell cluster by immunocytostaining after Wnt signal-activating culture step (Day 2)
Description: Human iPS cells (625A4; Center for iPS Cell Research and Application (CiRA), Kyoto University) were cultured at 37° C. for 6 to 7 days under 5% CO2 in AK02N (Ajinomoto Co., Inc.) (10 cm dish; 8 ml, 24-well plate; 0.5 ml) to form iPS cell colonies of 500 to 700 μm in diameter. The obtained colonies were cultured at 37° C. for 2 days under 5% CO2 in Essential 8 medium (Gibco) (10 cm dish; 8 ml, 24-well plate; 0.5 ml) supplemented with BMP4 (80 ng/ml), VEGF (80 ng/ml), and CHIR99021 (2 μM) (Days 0 to 2). iPS cell colonies were formed as a control in the same manner as in [1] and [2]. Then, the obtained colonies were cultured at 37° C. for 2 days under 5% CO2 in Essential 8 medium (Gibco) (10 cm dish; 8 ml, 24-well plate; 0.5 ml) supplemented with BMP4 (80 ng/ml) and VEGF (80 ng/ml) (Days 0 to 2). After induction of differentiation in the step of Days 0 to 2 in [1] or [2], the medium was removed, and the cells were washed once with PBS(−) (Gibco). Then, 4% paraformaldehyde was added at a volume of 500 μl/24 wells to the cells and left at room temperature for 15 minutes. Then, the cells were washed three times with PBS(−) and preserved overnight at 4° C. Then, PROTEIN BLOCK SERUM-FREE blocking solution [DAKO, X909] was added at a volume of 500 μl/24 wells to the cells and left at room temperature for 60 minutes for blocking. Then, a primary antibody ( 1/100 Anti-GATA6 (Abcam plc, ab22600), 1/50 Anti-Brachyury T (R&D Systems, Inc., AF2085), 1/400 Anti-Sox2 (CST, 3579P2), 1/100 Anti-CDX2 (R&D Systems, Inc., MAB3665), and 1/50 Anti-AP-2a (Santa Cruz Biotechnology Inc., sc-12726)) against the target antigen was added to a 1% blocking solution in PBS(−). The primary antibody solution was added at a volume of 500 μl/24 wells and left standing at room temperature for 60 minutes or overnight at 4° C. Subsequently, the cells were washed three times with PBS(−). […] The processing of the obtained images and quantitative analysis were carried out using image analysis software “Fiji”.

[3] = tested on: Human iPS cells (625A4) derived cell population; assay: Differentiation marker analysis of cell population by immunocytostaining (Brachyury, CD34; Day 6); conditions: cell cluster obtained with CHIR99021 2 μM (Days 0 to 2), further differentiated; cell population of Day 6
Description: Following the preparation of human yolk sac mesoderm cells in [1], the medium was replaced with Essential 6 medium (Gibco) (10 cm dish; 8 ml) supplemented with VEGF (80 ng/ml), FGF2 (25 ng/ml), SCF (50 ng/ml), and SB431542 (2 μM), and hemangioblasts were induced by further culture at 37° C. for 2 days under 5% CO2. Then, the medium was replaced with Stempro-34 SFM (Gibco) (10 cm dish; 8 ml) supplemented with VEGF (80 ng/ml), SCF (50 ng/ml), Flt-3L (50 ng/ml), IL-3 (50 ng/ml), IL-6 (50 ng/ml), and TPO (5 ng/ml), and the cells were cultured at 37° C. for 2 days under 5% CO2. Then, the medium was replaced with a medium of the composition described above except for VEGF, and CD34-positive and CD32-positive vitelline venous hemogenic endothelial cells were induced by culture at 37° C. for 2 days under 5% CO2. After induction of differentiation of the step of Days 4 to 6 in [4], immunocytostaining was performed by the same procedures as in [3] except that the primary antibody used was changed to 1/50 Anti-CD34 (Abcam plc, ab81289).

[4] = tested on: Human iPS cells (625A4) colonies; assay: Differentiation marker analysis of cell cluster by immunocytostaining after Wnt signal-inhibiting culture step (Day 2); conditions: cell cluster of Day 2
Description: Human iPS cells (625A4; Center for iPS Cell Research and Application (CiRA), Kyoto University) were cultured at 37° C. for 6 to 7 days under 5% CO2 in AK02N (Ajinomoto Co., Inc.) (10 cm dish; 8 ml, 24-well plate; 0.5 ml) to form iPS cell colonies of 500 to 700 μm in diameter. The obtained colonies were cultured at 37° C. for 2 days under 5% CO2 in Essential 8 medium (Gibco) (10 cm dish; 8 ml, 24-well plate; 0.5 ml) supplemented with BMP4 (80 ng/ml), VEGF (80 ng/ml), and IWP-2 (2 μM) (Days 0 to 2).
iPS cell colonies were formed as a control in the same manner as in [1] and [2]. Then, the obtained colonies were cultured at 37° C. for 2 days under 5% CO2 in Essential 8 medium (Gibco) (10 cm dish; 8 ml, 24-well plate; 0.5 ml) supplemented with BMP4 (80 ng/ml) and VEGF (80 ng/ml) (Days 0 to 2).
After induction of differentiation in the step of Days 0 to 2 in [1] or [2], the medium was removed, and the cells were washed once with PBS(−) (Gibco). Then, 4% paraformaldehyde was added at a volume of 500 μl/24 wells to the cells and left at room temperature for 15 minutes. Then, the cells were washed three times with PBS(−) and preserved overnight at 4° C. Then, PROTEIN BLOCK SERUM-FREE blocking solution [DAKO, X909] was added at a volume of 500 μl/24 wells to the cells and left at room temperature for 60 minutes for blocking. Then, a primary antibody ( 1/100 Anti-GATA6 (Abcam plc, ab22600), 1/50 Anti-Brachyury T (R&D Systems, Inc., AF2085), 1/400 Anti-Sox2 (CST, 3579P2), 1/100 Anti-CDX2 (R&D Systems, Inc., MAB3665), and 1/50 Anti-AP-2a (Santa Cruz Biotechnology Inc., sc-12726)) against the target antigen was added to a 1% blocking solution in PBS(−). The primary antibody solution was added at a volume of 500 μl/24 wells and left standing at room temperature for 60 minutes or overnight at 4° C. Subsequently, the cells were washed three times with PBS(−). […] The processing of the obtained images and quantitative analysis were carried out using image analysis software “Fiji”.

SMILES | CD34-positive and CD32-positive vitelline venous hemogenic endothelial cells produced [1] | Enrichment of Brachyury-negative, GATA6-positive, and FOXF1-positive YSMCs in the cell cluster ([2]; CHIR99021 2 μM with BMP4 and VEGF in Essential 8, Days 0 to 2, cell cluster of Day 2, compared with no addition (−)) | Morphology of the cell cluster under an optical microscope versus cell cluster obtained by a conventional method ([2]; CHIR99021 2 μM, 2 days after the start of culture) | GATA6 status of the CDX2-negative region (+CHIR) ([2]; CHIR99021 2 μM, Days 0 to 2, cell cluster of Day 2) | Appearance of CD34-positive vascular endothelial progenitor cells from YSM region in the outer edge part [3] | GATA6-positive cells in an outer edge part of the cell cluster ([4]; 2 μM, Days 0 to 2, compared with +CHIR) | Enrichment of CDX2-positive and TFAP2A-positive AECs in the cell cluster ([4]; IWP-2 2 μM with BMP4 and VEGF in Essential 8, Days 0 to 2, compared with no addition (−)) | GATA6 status of the CDX2-positive region (+IWP-2) ([4]; IWP-2 2 μM, Days 0 to 2)
Cc1c[nH]c(-c2cnc(NCCNc3ccc(C#N)cn3)nc2-c2ccc(Cl)cc2Cl)n1 [CHIR99021] | more | enriched | differ morphologically | GATA6-positive | Rich CD34-positive vascular endothelial progenitor cells were confirmed to appear | – | – | –
Cc1ccc2nc(NC(=O)CSc3nc4c(c(=O)n3-c3ccccc3)SCC4)sc2c1 [IWP-2] | – | – | – | – | – | small number of GATA6-positive cells | enriched | GATA6-negative
